Measured values from ChEMBL document CHEMBL4033684, “Development of nonsteroidal glucocorticoid receptor modulators based on N-benzyl-N-(4-phenoxyphenyl)benzenesulfonamide scaffold” (Bioorg Med Chem, 2017).
The source made the active and inactive calls. The rule behind the calls is not given here.

Experiments:
Format in all cases: cell-based
[1] = target: T1, Glucocorticoid receptor (Homo sapiens, UniProt P04150); assay: (§1) Antagonist activity at human GRalpha expressed in HEK293 cells assessed as inhibition of dexamethasone-induced response after 24 hrs by luciferase reporter gene assay
T1 sequence (P04150 whole entry): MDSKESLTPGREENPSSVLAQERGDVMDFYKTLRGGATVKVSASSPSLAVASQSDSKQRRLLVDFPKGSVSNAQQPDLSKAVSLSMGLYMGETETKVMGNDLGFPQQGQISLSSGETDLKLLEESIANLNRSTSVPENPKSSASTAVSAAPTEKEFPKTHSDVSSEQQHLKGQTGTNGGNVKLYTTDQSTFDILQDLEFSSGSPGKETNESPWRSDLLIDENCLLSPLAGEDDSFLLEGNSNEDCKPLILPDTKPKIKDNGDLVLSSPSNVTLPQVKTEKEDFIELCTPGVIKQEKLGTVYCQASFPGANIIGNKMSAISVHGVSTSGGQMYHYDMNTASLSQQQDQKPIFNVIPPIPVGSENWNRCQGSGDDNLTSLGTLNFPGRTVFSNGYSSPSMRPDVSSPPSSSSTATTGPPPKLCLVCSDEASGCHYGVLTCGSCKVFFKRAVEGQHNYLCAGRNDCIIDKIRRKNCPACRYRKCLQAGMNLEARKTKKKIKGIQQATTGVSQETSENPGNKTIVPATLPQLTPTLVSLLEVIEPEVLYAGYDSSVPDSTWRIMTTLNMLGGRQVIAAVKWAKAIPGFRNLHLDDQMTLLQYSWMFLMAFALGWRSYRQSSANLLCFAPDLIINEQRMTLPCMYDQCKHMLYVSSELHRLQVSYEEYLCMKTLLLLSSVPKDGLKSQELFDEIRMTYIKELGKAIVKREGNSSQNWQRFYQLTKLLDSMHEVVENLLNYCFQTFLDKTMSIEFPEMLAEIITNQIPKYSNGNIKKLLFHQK

[2] = target: T1, Glucocorticoid receptor; assay: Transactivation of human GRalpha expressed in HEK293 cells after 24 hrs by luciferase reporter gene assay; settings: hek293, 24 h
[3] = target: T2, Glucocorticoid receptor (Homo sapiens) (UniProt P04150); assay: Antagonist activity at human GRalpha expressed in HEK293 cells assessed as inhibition of dexamethasone-induced response at 30 uM after 24 hrs by luciferase reporter gene assay relative to control
T2 sequence (whole entry): T1 sequence (P04150 whole entry)

[4] = target: T2, Glucocorticoid receptor (Homo sapiens); assay: Transrepression of human GRalpha expressed in HEK293 cells co-expressing pGL4.32 assessed as inhibition of TNFalpha-stimulated NF-kB activity at 30 uM preincubated for 4 hrs followed by TNFalpha addition measured after 3 hrs by luciferase reporter gene assay relative to control
[5] = target: T2, Glucocorticoid receptor (Homo sapiens); assay: as §1

Q: Which IC50 [1] does the source give for `N#Cc1ccc(S(=O)(=O)N(Cc2ccc(F)cc2)c2ccc(Oc3ccccc3)cc2)cc1` here?
A: The IC50 was over 30 µM.

Q: What about the Activity [2] of the same compound?
A: Its Activity is “Not Active”.

Q: And the inhibition [3]?
A: Its inhibition is under 50%.

Q: With `Nc1cccc(S(=O)(=O)N(Cc2ccccc2)c2ccc(Oc3ccccc3)cc2)c1` as the compound, how does the Activity [2] read?
A: Its Activity is “Not Active”.

Q: And the inhibition [4]?
A: Its inhibition is 39%.

Q: With `CC(=O)Nc1ccc(S(=O)(=O)N(Cc2ccccc2)c2ccc(Oc3ccccc3)cc2)cc1` as the compound, how does the IC50 [1] read?
A: Its IC50 is 1.97 µM.

Q: And the Activity [2]?
A: Its Activity is “Not Active”.

Q: And the inhibition [4]?
A: Its inhibition is 60%.

Q: Which results are given for `COc1ccc(S(=O)(=O)N(Cc2ccccc2)c2ccc(Oc3ccccc3)cc2)cc1`?
A: IC50 [1]: 1.87 µM; Activity [2]: Not Active

Q: Which results are given for `O=S(=O)(c1ccc(S(F)(F)(F)(F)F)cc1)N(Cc1ccccc1)c1ccc(Oc2ccccc2)cc1`?
A: IC50 [1]: > 30 µM; Activity [2]: Not Active; inhibition [3]: < 50%

Q: What does the source list for `N#Cc1ccc(S(=O)(=O)N(Cc2ccc(Br)cc2)c2ccc(Oc3ccccc3)cc2)cc1`?
A: IC50 [1]: 7.87 µM; Activity [2]: Not Active

Q: With `O=S(=O)(c1ccc(OC(F)(F)F)cc1)N(Cc1ccccc1)c1ccc(Oc2ccccc2)cc1` as the compound, how does the IC50 [1] read?
A: Its IC50 is 7.48 µM.

Q: What about the Activity [2] of the same compound?
A: The Activity was “Not Active”.

Q: With `CNc1ccc(S(=O)(=O)N(Cc2ccccc2)c2ccc(Oc3ccccc3)cc2)cc1` as the compound, how does the Activity [2] read?
A: The Activity was “Not Active”.

Q: What about the inhibition [4] of the same compound?
A: The inhibition was “inactive”.

Q: How did the IC50 [1] turn out when `N#Cc1ccc(S(=O)(=O)N(CCCc2ccccc2)c2ccc(Oc3ccccc3)cc2)cc1` was run?
A: Its IC50 is over 30 µM.

Q: And the Activity [2]?
A: Its Activity is “Not Active”.

Q: And the inhibition [3]?
A: The inhibition was under 50%.

Q: `O=S(=O)(c1ccc(Br)cc1)N(Cc1ccccc1)c1ccc(Oc2ccccc2)cc1` was tested. Which IC50 [1] did it give?
A: Its IC50 is over 30 µM.

Q: And the Activity [2]?
A: The Activity was “Not Active”.

Q: And the inhibition [3]?
A: Its inhibition is under 50%.

Q: What does the source list for `O=S(=O)(c1ccc(Cl)cc1)N(Cc1ccccc1)c1ccc(Oc2ccccc2)cc1`?
A: IC50 [1]: 2.4 µM; Activity [2]: Not Active

Q: How did the Activity [2] turn out when `Nc1ccccc1S(=O)(=O)N(Cc1ccccc1)c1ccc(Oc2ccccc2)cc1` was run?
A: The Activity was “Not Active”.

Q: And the inhibition [4]?
A: The inhibition was 46%.

Q: What does the source list for `COc1ccc(Oc2ccc(N(Cc3ccccc3)S(=O)(=O)c3ccc(C#N)cc3)cc2)cc1`?
A: IC50 [1]: > 30 µM; Activity [2]: Not Active; inhibition [3]: < 50%

Q: Which results are given for `COc1cccc(C(=O)Nc2ccc(Oc3ccc(O)cc3)c(C)c2)c1`?
A: inhibition [5]: inactive; Activity [2]: Not Active

Q: What does the source list for `N#Cc1ccccc1S(=O)(=O)N(Cc1ccccc1)c1ccc(Oc2ccccc2)cc1`?
A: IC50 [1]: > 30 µM; Activity [2]: Not Active; inhibition [3]: < 50%

Q: `COc1ccc(CN(c2ccc(Oc3ccccc3)cc2)S(=O)(=O)c2ccc(C#N)cc2)cc1` was tested. Which Activity [2] did it give?
A: The Activity was “Not Active”.

Q: What about the inhibition [3] of the same compound?
A: Its inhibition is “inactive”.

Q: `COC(=O)Nc1ccc(S(=O)(=O)N(Cc2ccccc2)c2ccc(Oc3ccccc3)cc2)cc1` was tested. Which IC50 [1] did it give?
A: Its IC50 is 2.11 µM.

Q: And the Activity [2]?
A: Its Activity is “Not Active”.

Q: And the inhibition [4]?
A: The inhibition was 32%.

Q: For `COc1cccc(Oc2ccc(N(Cc3ccccc3)S(=O)(=O)c3ccc(C#N)cc3)cc2)c1`, which Activity [2] is on record?
A: The Activity was “Not Active”.

Q: And the inhibition [3]?
A: The inhibition was “inactive”.

Q: For `N#Cc1cccc(S(=O)(=O)N(Cc2ccccc2)c2ccc(Oc3ccccc3)cc2)c1`, which Activity [2] is on record?
A: The Activity was “Not Active”.

Q: And the inhibition [3]?
A: Its inhibition is “inactive”.

Q: `N#Cc1ccc(S(=O)(=O)N(Cc2ccccc2Cl)c2ccc(Oc3ccccc3)cc2)cc1` was tested. Which IC50 [1] did it give?
A: Its IC50 is over 30 µM.

Q: What about the Activity [2] of the same compound?
A: The Activity was “Not Active”.

Q: With `O=S(=O)(c1ccccc1)N(Cc1ccccc1)c1ccc(Oc2ccccc2)cc1` as the compound, how does the IC50 [1] read?
A: Its IC50 is 3.59 µM.

Q: And the Activity [2]?
A: Its Activity is “Not Active”.

Q: Which IC50 [1] does the source give for `N#Cc1ccc(S(=O)(=O)N(Cc2cccc3ccccc23)c2ccc(Oc3ccccc3)cc2)cc1` here?
A: The IC50 was over 30 µM.

Q: What about the Activity [2] of the same compound?
A: Its Activity is “Not Active”.

Q: What about the inhibition [3] of the same compound?
A: Its inhibition is under 50%.

Q: What does the source list for `O=S(=O)(c1ccc(C(F)(F)F)cc1)N(Cc1ccccc1)c1ccc(Oc2ccccc2)cc1`?
A: IC50 [1]: > 30 µM; Activity [2]: Not Active; inhibition [3]: < 50%

Q: For `N#Cc1ccc(S(=O)(=O)N(Cc2ccc3ccccc3c2)c2ccc(Oc3ccccc3)cc2)cc1`, which IC50 [1] is on record?
A: The IC50 was over 30 µM.

Q: What about the Activity [2] of the same compound?
A: The Activity was “Not Active”.

Q: What about the inhibition [3] of the same compound?
A: Its inhibition is under 50%.

Q: `N#Cc1ccc(S(=O)(=O)N(Cc2ccc(Cl)cc2)c2ccc(Oc3ccccc3)cc2)cc1` was tested. Which IC50 [1] did it give?
A: Its IC50 is over 30 µM.

Q: And the Activity [2]?
A: Its Activity is “Not Active”.

Q: What about the inhibition [3] of the same compound?
A: The inhibition was under 50%.

Q: For `CCN(CC)c1ccc(S(=O)(=O)N(Cc2ccccc2)c2ccc(Oc3ccccc3)cc2)cc1`, which Activity [2] is on record?
A: The Activity was “Not Active”.

Q: What about the inhibition [4] of the same compound?
A: The inhibition was “inactive”.

Q: With `O=[N+]([O-])c1ccc(S(=O)(=O)N(Cc2ccccc2)c2ccc(Oc3ccccc3)cc2)cc1` as the compound, how does the IC50 [1] read?
A: Its IC50 is 5.77 µM.

Q: And the Activity [2]?
A: The Activity was “Not Active”.

Q: `N#Cc1ccc(S(=O)(=O)N(CCc2ccccc2)c2ccc(Oc3ccccc3)cc2)cc1` was tested. Which IC50 [1] did it give?
A: Its IC50 is over 30 µM.

Q: And the Activity [2]?
A: Its Activity is “Not Active”.

Q: What about the inhibition [3] of the same compound?
A: The inhibition was under 50%.

Q: Which results are given for `N#Cc1ccc(S(=O)(=O)N(CC2CC2)c2ccc(Oc3ccccc3)cc2)cc1`?
A: Activity [2]: Not Active; inhibition [3]: inactive

Q: Which IC50 [1] does the source give for `CC(C)(C)c1ccc(S(=O)(=O)N(Cc2ccccc2)c2ccc(Oc3ccccc3)cc2)cc1` here?
A: Its IC50 is over 30 µM.

Q: And the Activity [2]?
A: The Activity was “Not Active”.

Q: What about the inhibition [3] of the same compound?
A: The inhibition was under 50%.

Q: Which results are given for `CN(C)c1ccc(S(=O)(=O)N(Cc2ccccc2)c2ccc(Oc3ccccc3)cc2)cc1`?
A: Activity [2]: Not Active; inhibition [4]: inactive

Q: Which results are given for `CC(C)(C)c1ccc(CN(c2ccc(Oc3ccccc3)cc2)S(=O)(=O)c2ccc(C#N)cc2)cc1`?
A: Activity [2]: Not Active; inhibition [3]: inactive

Q: Which results are given for `Cc1ccc(S(=O)(=O)N(Cc2ccccc2)c2ccc(Oc3ccccc3)cc2)cc1`?
A: IC50 [1]: 2.02 µM; Activity [2]: Not Active

Q: Which IC50 [1] does the source give for `Nc1ccc(S(=O)(=O)N(Cc2ccccc2)c2ccc(Oc3ccccc3)cc2)cc1` here?
A: Its IC50 is 3.15 µM.

Q: And the Activity [2]?
A: The Activity was “Not Active”.

Q: And the inhibition [4]?
A: Its inhibition is 64%.

Q: `O=S(=O)(c1ccc(F)cc1)N(Cc1ccccc1)c1ccc(Oc2ccccc2)cc1` was tested. Which IC50 [1] did it give?
A: The IC50 was 2.04 µM.

Q: What about the Activity [2] of the same compound?
A: The Activity was “Not Active”.

Q: How did the Activity [2] turn out when `COc1ccccc1Oc1ccc(N(Cc2ccccc2)S(=O)(=O)c2ccc(C#N)cc2)cc1` was run?
A: Its Activity is “Not Active”.

Q: And the inhibition [3]?
A: The inhibition was “inactive”.

Q: With `N#Cc1ccc(S(=O)(=O)N(Cc2cccc(Cl)c2)c2ccc(Oc3ccccc3)cc2)cc1` as the compound, how does the IC50 [1] read?
A: Its IC50 is 5.42 µM.

Q: What about the Activity [2] of the same compound?
A: Its Activity is “Not Active”.

Q: What does the source list for `Cc1ccc(CN(c2ccc(Oc3ccccc3)cc2)S(=O)(=O)c2ccc(C#N)cc2)cc1`?
A: IC50 [1]: > 30 µM; Activity [2]: Not Active; inhibition [3]: < 50%

Q: With `O=S(=O)(Nc1ccc(Oc2ccccc2)cc1)c1cccc(C(F)(F)F)c1` as the compound, how does the IC50 [1] read?
A: Its IC50 is 11.7 µM.

Q: And the Activity [2]?
A: The Activity was “Not Active”.

Q: With `CCNc1ccc(S(=O)(=O)N(Cc2ccccc2)c2ccc(Oc3ccccc3)cc2)cc1` as the compound, how does the Activity [2] read?
A: The Activity was “Not Active”.

Q: And the inhibition [4]?
A: The inhibition was “inactive”.
